Data reported in patent US20240368104A1, “Novel Dialkoxynaphtho[2,3-C]Furan-1(3H)-One Derivatives and Pharmaceutical Composition For Preventing or Treating Respiratory Disease or SARS-COV-2 Infection Disease, Comprising Same” (priority 2021, published 2024).

Key:
SARS-COV-2 = assay: microbe, parasite or virus in culture; assay type: cell-based; parameters: SI (Selectivity Index, CC50/IC50): unit not given here; conditions: for SI (Selectivity Index, CC50/IC50): SARS-COV-2, values >50 assumed to be 50; for IC50: Severe acute respiratory syndrome coronavirus 2, Vero cells, 24 hours infection, read-out: SARS-COV-2 inhibition (IC50)
[1] = test system: IL-5 expression in Th2 cells; assay: Inhibition of IL-5 expression in Th2 cells (ELISA); assay type: cell-based, Balb/C mice; conditions: Splenocyte; Th2 cells from mouse splenocytes, compound 1 nM; read-out: Inhibitory ability against IL-5 expression (%)
Protocol: Specifically, after spleens were collected from Balb/C mice, CD4+ T cells were isolated therefrom and were seeded at 1-2×10^6 per well into a 48-well tissue culture plate coated with anti-CD3 (5 ug/ml) and anti-CD28 (1 ug/ml). At this time, the culture medium was incubated with IL-2 (20 ng/ml), IL-4 (100 ng/ml), anti-IFNγ (10 ug/ml), anti-IL12 (10 ug/ml), and a derivative of 1 nM for two days, transferred to a new tissue culture plate, and further cultured for three days to induce differentiation into Th2 cells. After replacing with a new medium containing anti-IFNγ (10 ug/ml), anti-IL12 (10 ug/ml) and a derivative of 1 nM, polarization of Th2 cells was induced using PMA and A23187. After two days of culture, the cells were centrifuged and the culture medium was taken to perform IL-5 ELISA. IL-5 ELISA was performed according to the test method of the kit manufacturer.

in vitro = conditions: African green monkey

Row | Structure (SMILES) | SI (Selectivity Index, CC50/IC50) (SARS-COV-2) | IC50 (SARS-COV-2) [µM] | inhibition at 0.001 µM [1] [%] | CC50 (in vitro) [µM]
1 | CCCCCCOCCN(CCCCCC)c1ncc(-c2c3c(cc4cc(OC)c(OC)cc24)COC3=O)cn1 [Example 48, 9-(2-(hexyl(2-(hexyloxy)ethyl)amino)pyrimidin-5-yl)-6,7-dimethoxynaphtho[2,3-c]furan-1(3H)-one] | 2.55 | 19.6 | 58.1 | > 50
2 | COc1cc2cc3c(c(-c4cnc(N5CCC[C@H]5C(=O)N[C@@H](C)c5ccc(F)cc5)nc4)c2cc1OC)C(=O)OC3 [Example 39, (S)-1-(5-(6,7-dimethoxy-3-oxo-1,3-dihydronaphtho[2,3-c]furan-4-yl)pyrimidin-2-yl)-N—((S)-1-(4-fluorophenyl)ethyl)pyrrolidin-2-carboxamide] | 1.98 | 13.6 | 47.7 | > 50
3 | COc1cc2cc3c(c(-c4cnc(Nc5ccc(C)c(C)c5)nc4)c2cc1OC)C(=O)OC3 [Example 14, 9-(2-((3,4-dimethylphenyl)amino)pyrimidin-5-yl)-6,7-dimethoxynaphtho[2,3-c]furan-1(3H)-one] | 3.31 | 15.1 | 58.9 | > 50
4 | CCOC(=O)CNC(=O)[C@@H]1CCCN1c1ncc(-c2c3c(cc4cc(OC)c(OC)cc24)COC3=O)cn1 [Example 45, Ethyl (5-(6,7-dimethoxy-3-oxo-1,3-dihydronaphtho[2,3-c]furan-4-yl)pyrimidin-2-yl)-L-proglycinate] |  |  | 64.2 | 
5 | COc1cc2cc3c(c(-c4ccc5nccnc5c4)c2cc1OC)C(=O)OC3 [Example 40, 6,7-dimethoxy-9-(quinoxalin-6-yl)naphtho[2,3-c]furan-1(3H)-one] | 76.71 | 0.65 | 65.1 | > 50
6 | COc1cc2cc3c(c(-c4cnc(NCc5ccc(C)o5)nc4)c2cc1OC)C(=O)OC3 [Example 50, 6,7-dimethoxy-9-(2-(((5-methylfuran-2-yl)methyl)amino)pyrimidin-5-yl)naphtho[2,3-c]furan-1(3H)-one] | 5.27 | 9.49 | 61.5 | > 50
7 | COC(=O)[C@@H](C)NC(=O)[C@@H]1CCCN1c1ncc(-c2c3c(cc4cc(OC)c(OC)cc24)COC3=O)cn1 [Example 38, Methyl (5-(6,7-dimethoxy-3-oxo-1,3-dihydronaphtho[2,3-c]furan-4-yl)pyrimidin-2-yl)-L-prolyl-D-alaninate] |  |  | 62.8 | 
8 | CCOC(=O)C1CCCN(c2ncc(-c3c4c(cc5cc(OC)c(OC)cc35)COC4=O)cn2)C1 (centres unmarked) [Example 15, Ethyl 1-(5-(6,7-dimethoxy-3-oxo-1,3-dihydronaphtho[2,3-c]furan-4-yl)pyrimidin-2-yl) piperidin-3-carboxylate] | 11.37 | 4.4 | 82.9 | > 50
9 | COc1cc2cc3c(c(-c4ccc5oc6ccccc6c5c4)c2cc1OC)C(=O)OC3 [Example 43, 9-(dibenzo[b,d]furan-2-yl)-6,7-dimethoxynaphtho[2,3-c]furan-1(3H)-one] | 1.00 | > 50 | 65.9 | > 50
10 | COc1cc2cc3c(c(-c4cnc(N5CCC[C@H]5C(=O)NCc5ccc(C)o5)nc4)c2cc1OC)C(=O)OC3 [Example 41, (S)-1-(5-(6,7-dimethoxy-3-oxo-1,3-dihydronaphtho[2,3-c]furan-4-yl)pyrimidin-2-yl)-N-((5-methylfuran-2-yl)methyl)pyrrolidin-2-carboxamide] | 2.41 | 15.2 | 66 | > 50
11 | CCOC(=O)CNc1ncc(-c2c3c(cc4cc(OC)c(OC)cc24)COC3=O)cn1 [Example 44, Ethyl (5-(6,7-dimethoxy-3-oxo-1,3-dihydronaphtho[2,3-c]furan-4-yl)pyrimidin-2-yl)glycinate] |  |  | 58.3 | 
